Values after ≈ are worked out from the molar mass of the structure shown.
Experiments:
[1] = Membrane permeation test, dialysis profile of Molsidomin-β-CD granule; format: physicochemical; settings: Molsidomin 1 mg/ml or equivalent granule, 100% diffusion = 0.33 mg/ml
Protocol: Visking-type cellophane membrane (average pore diameter 24 angstroms) was used. Aqueous solutions of Molsidomin at a concentration of 1 and 2 mg/ml were put in the donor cell, while distilled water was placed in the receptor compartment of the membrane permeation cell apparatus.
Dialysis profile of Molsidomin-β-CD granule was examined using the same permeation cell as described above.
Molsidomin at a concentration of 1 mg/ml and equivalent amount of complex granule were used in the experiment
100% diffusion corresponding to 0.33 mg/ml Molsidomin concentration in the receptor cell.

[2] = Molsidomin alone, no cyclodextrin; 37 °C; donor 1 and 2 mg/ml
Protocol: Visking-type cellophane membrane (average pore diameter 24 angstroms) was used. Aqueous solutions of Molsidomin at a concentration of 1 and 2 mg/ml were put in the donor cell, while distilled water was placed in the receptor compartment of the membrane permeation cell apparatus. The solutions were stirred by magnetic stirrers and were kept at 37+1° C. At appropriate time intervals samples were pipetted from the receptor solutions and concentration of Molsidomin permeated from the donor cell was measured by UV-spectrophotometry. The test was repeated in the presence of different cyclodextrins at different concentrations in the donor cell compartment.

[3] = 25° C.; cited from earlier work
[4] = pH value of 5-7; cited from earlier work
[5] = oral; cited from earlier work
angina pectoris = settings: cited from earlier work
[6] = percutaneous, cited from earlier work
[7] = compared to the organic nitrates; cited from earlier work

Concentration of Molsidomin in the receptor cell ([1]; 1 hour): 200 µg/mL
Concentration of Molsidomin in the receptor cell ([1]; 2 hours): 290 µg/mL
Concentration of Molsidomin in the receptor cell ([1]; 3 hours): 320 µg/mL
Concentration of Molsidomin in the receptor cell ([1]; 4 hours): 340 µg/mL
Diffusion half life (T 50%) of Molsidomin [2]: 1.0 h
Compound: CCOC(=O)[N-]c1cn(N2CCOCC2)n[o+]1 [Molsidomin, N-ethoxycarbonyl-3-morpholino-sydnonimine]
solubility in water [3]: 18 mg/mL (≈ 74.3 mM)
stability in water [4]: stable
absorption along the whole Gi-tract [5]: fairly absorbed
bioavailability [5]: satisfactory
duration of effect compared to the organic nitrates (angina pectoris; compared to the organic nitrates): more lasting
duration of effect of oral preparation (angina pectoris; oral, 2 mg of the active ingredient): 3 to 5 h
bioavailability through the skin ([6]; Molsidomin itself): 4%
resorption through the skin ([6]; Molsidomin itself): resorbed slowly and to a small extent
resorption of Molsidomin relative to propylene-glycol [6]: of similar extent, and of similar quantity
habit forming [7]: does not become habit forming
headaches [7]: rarely induces headaches which are also less severe
side-effects [7]: less side-effects
